For 22 molecules, inhibition of growth and pest or weed control results are on record in US20250049036A1 (priority 2021, published 2025).

One experiment relates to Colletotrichum capsici. Kind of experiment: Colletotrichum capsici (anthracnose) mycelial radial growth on potato dextrose agar. The experiment is classed as cell-based. The following applies: Colletotrichum truncatum, 168 h, 25° C., seven days, read-out: control compared to the untreated check. The procedure: The compounds were dissolved in 0.3% dimethyl sulfoxide and then added to potato dextrose agar medium just prior to dispensing it into petri dishes. 5 mL medium, with the compound in the desired concentration, was dispensed into 60 mm sterile petri-plates. After solidification, each plate was seeded with a 5 mm size mycelial disc taken from the periphery of an actively growing virulent culture plate. The plates were incubated in growth chambers at 25° C. temperature and 60% relative humidity for seven days and the radial growth was measured and compared to the one of the untreated control.

In the next experiment the test system is Phakopsora pachyrhizi. Kind of experiment: Phakopsora pachyrhizi test on soybean, preventive, greenhouse. The experiment is classed as in vivo. The note with it: preventive spray on soybean, inoculated one day after treatment, read-out: control (efficacy, disease severity) compared to the untreated check. The procedure:
The respective compound was dissolved in 2% dimethyl sulfoxide/acetone and then mixed with water containing emulsifier to the calibrated spray volume of 30 mL. Each spray solution was poured into a spray bottle for further application.
To test the preventive activity of a compound, healthy young soybean plants, raised in the greenhouse, were sprayed with the active compound preparation at the stated application rate inside the spray cabinets using hollow cone nozzles. One day after treatment, the plants were inoculated with a conidial suspension containing 2×10^5 Phakopsora pachyrhizi inoculum. The inoculated plants were then kept in a greenhouse chamber at 22-24° C. temperature and 80-90% relative humidity for disease expression.

The next experiment has as its system Pyricularia oryzae. As to the kind of experiment: microbe, parasite or virus in culture. It counts as cell-based. The note with it: 168 h, read-out: control compared to the untreated check.
The next experiment deals with Parastagonospora nodorum. Kind of experiment: Parastagonospora nodorum (PARANO) spore growth inhibition in liquid medium, 96-well microtiter plate, OD 600. The experiment is classed as cell-based. The following applies: spore suspension in PDB liquid medium, 18° C., 5-6 days, OD at 600, read-out: control compared to the untreated check. The procedure:
Potato dextrose (PDB) liquid medium (Difco) containing a PARANO (10^5 spores/ml) spore suspension was prepared. For the inhibition assay, each test compound was solved in dimethyl sulfoxide. 100 μl of the test compound in media-solution was added to a 96-well microtiter plate, consequently, the same volume (100 μl) of spore suspension was added to the well making the final test concentrations and the plate was incubated at 18° C. for 5-6 days. The growth inhibition was evaluated by measuring the OD at 600. Percent inhibition was calculated with the below formula: […]

For a further experiment, the system named is Botrytis cinerea. As to the kind of experiment: Botrytis cinerea test on tomato, preventive, greenhouse. The experiment is classed as in vivo. The note with it: preventive spray on bean/chili plants (heading: tomato), inoculated one day after treatment, read-out: control (efficacy, disease severity) compared to the untreated check.

Where only a bound is given, the exact number is not on record here.

In the case of `Cn1ccc2cc(C(=O)NC(C)(C)Cc3ccc(F)c(F)c3)cnc21` [Compound 23, N-(1-(3,4-difluorophenyl)-2-methylpropan-2-yl)-1-methyl-1H-pyrrolo[2,3-b]pyridine-5-carboxamide], the inhibition of growth at 300 ppm in the experiment with Colletotrichum capsici, in the experiment on Pyricularia oryzae and with Parastagonospora nodorum was ≥ 70% throughout. In addition, in the experiment with Phakopsora pachyrhizi, the pest or weed control at 500 ppm is ≥ 70%.

As to `Cn1ccc2cc(C(=O)NC(C)(C)Cc3ccc(Cl)c(Cl)c3)cnc21` [Compound 24, N-(1-(3,4-dichlorophenyl)-2-methylpropan-2-yl)-1-methyl-1H-pyrrolo[2,3-b]pyridine-5-carboxamide], in the experiment on Phakopsora pachyrhizi, the pest or weed control at 500 ppm was ≥ 70%. The inhibition of growth at 300 ppm in the experiment on Pyricularia oryzae was ≥ 70%.

Regarding `CC(Cc1ccccc1)(CC(F)(F)F)NC(=O)c1cnc2ccsc2c1` (centres unmarked) [Compound 25, N-(4,4,4-trifluoro-2-methyl-1-phenylbutan-2-yl)thieno[3,2-b] pyridine-6-carboxamide], the inhibition of growth at 300 ppm with Colletotrichum capsici, in the experiment on Pyricularia oryzae and with Parastagonospora nodorum was ≥ 70% each time. In addition, in the experiment with Phakopsora pachyrhizi, the pest or weed control at 500 ppm was ≥ 70%.

Turning to `CC(C)CC(C)(Cc1ccccc1)NC(=O)c1cnc2ccsc2c1` (centres unmarked) [Compound 29, N-(2,4-dimethyl-1-phenylpentan-2-yl)thieno[3,2-b] pyridine-6-carboxamide], the inhibition of growth at 300 ppm with Colletotrichum capsici and in the experiment on Pyricularia oryzae was ≥ 70% in each case. Also, the pest or weed control at 500 ppm in the experiment on Phakopsora pachyrhizi is ≥ 70%.

As for `Cc1nc2c(ccn2C)cc1C(=O)NC(C)(Cc1ccccc1)CC(C)C` (centres unmarked) [Compound 34, N-(2,4-dimethyl-1-phenylpentan-2-yl)-1,6-dimethyl-1H-pyrrolo[2,3-b]pyridine-5-carboxamide], the inhibition of growth at 300 ppm in the experiment on Colletotrichum capsici, with Pyricularia oryzae and in the experiment on Parastagonospora nodorum was ≥ 70% in each case. Further, the pest or weed control at 500 ppm in the experiment with Phakopsora pachyrhizi is ≥ 70%.

As for `Cc1nc2c(ccn2C)cc1C(=O)NC(C)(C)C(C)c1ccccc1F` (centres unmarked) [Compound 35, N-(3-(2-fluorophenyl)-2-methylbutan-2-yl)-1,6-dimethyl-1H-pyrrolo[2,3-b]pyridine-5-carboxamide], the pest or weed control at 500 ppm in the experiment on Botrytis cinerea and in the experiment on Phakopsora pachyrhizi was ≥ 70% throughout.

Consider `CC(C)CC(C)(Cc1ccccc1F)NC(=O)c1cnc2c(ccn2C)c1` (centres unmarked) [Compound 36, N-(1-(2-fluorophenyl)-2,4-dimethylpentan-2-yl)-1-methyl-1H-pyrrolo[2,3-b]pyridine-5-carboxamide], for which the inhibition of growth at 300 ppm in the experiment on Colletotrichum capsici, with Pyricularia oryzae and in the experiment with Parastagonospora nodorum was ≥ 70% throughout.

Take `CC(C)(Cc1ccccc1)NC(=O)c1cnc2c(c1)CCCC2` [Compound 45, N-(2-methyl-1-phenylpropan-2-yl)-5,6,7,8-tetrahydroquinoline-3-carboxamide]: the inhibition of growth at 300 ppm with Colletotrichum capsici and in the experiment on Parastagonospora nodorum was ≥ 70% throughout. For the same molecule, in the experiment on Phakopsora pachyrhizi, the pest or weed control at 500 ppm is ≥ 70%.

Regarding `Cn1cc(C2CC2)c2cc(C(=O)NC(C)(C)Cc3ccccc3)cnc21` [Compound 54, 3-cyclopropyl-1-methyl-N-(2-methyl-1-phenylpropan-2-yl)-1H-pyrrolo[2,3-b] pyridine-5-carboxamide], the pest or weed control at 500 ppm with Botrytis cinerea and in the experiment with Phakopsora pachyrhizi was ≥ 70% throughout.

With `CN(C(=O)c1cnc2c(c1)c(Cl)cn2C)C(C)(C)Cc1ccccc1` [Compound 56, 3-chloro-N,1-dimethyl-N-(2-methyl-1-phenylpropan-2-yl)-1H-pyrrolo[2,3-b] pyridine-5-carboxamide], in the experiment with Phakopsora pachyrhizi, the pest or weed control at 500 ppm is ≥ 70%. Further, the inhibition of growth at 300 ppm with Pyricularia oryzae and in the experiment on Parastagonospora nodorum was ≥ 70% in each case.

For the molecule `CN(C(=O)c1cnc2c(c1)c(C1CC1)cn2C)C(C)(C)Cc1ccccc1` [Compound 57, 3-cyclopropyl-N,1-dimethyl-N-(2-methyl-1-phenylpropan-2-yl)-1H-pyrrolo[2,3-b] pyridine-5-carboxamide], the pest or weed control at 500 ppm in the experiment with Botrytis cinerea and in the experiment on Phakopsora pachyrhizi was ≥ 70% each time.

For the molecule `Cn1cc(Br)c2cc(C(=O)NC(C)(C)Cc3ccccc3F)cnc21` [Compound 58, 3-bromo-N-(1-(2-fluorophenyl)-2-methylpropan-2-yl)-1-methyl-1H-pyrrolo[2,3-b]pyridine-5-carboxamide], the pest or weed control at 500 ppm with Phakopsora pachyrhizi is ≥ 70%. The inhibition of growth at 300 ppm in the experiment with Pyricularia oryzae is ≥ 70%.

As to `Cn1ccc2cc(C(=O)NC(C)(C)Cc3ccc(Br)cc3)cnc21` [Compound 61, N-(1-(4-bromophenyl)-2-methylpropan-2-yl)-1-methyl-1H-pyrrolo[2,3-b]pyridine-5-carboxamide], in the experiment on Botrytis cinerea, the pest or weed control at 500 ppm was ≥ 70%.

For the molecule `CC(c1ccccc1F)C(C)(C)NC(=O)c1cnc2c(c1)c(C1CC1)cn2C` (centres unmarked) [Compound 65, 3-cyclopropyl-N-(3-(2-fluorophenyl)-2-methylbutan-2-yl)-1-methyl-1H-pyrrolo[2,3-b]pyridine-5-carboxamide], the pest or weed control at 500 ppm in the experiment with Phakopsora pachyrhizi is ≥ 70%. In the experiment on Pyricularia oryzae, the inhibition of growth at 300 ppm is ≥ 70%.

With `Cn1ccc2cc(C(=O)NC(C)(C)Cc3ccc(F)cc3)cnc21` [Compound 74, N-(1-(4-fluorophenyl)-2-methylpropan-2-yl)-1-methyl-1H-pyrrolo[2,3-b]pyridine-5-carboxamide], in the experiment with Botrytis cinerea, the pest or weed control at 500 ppm is ≥ 70%.

On to `CSc1ccc(C(NC(=O)c2cnc3c(ccn3C)c2)C(C)C)cc1` (centres unmarked) [Compound 90], for which the inhibition of growth at 300 ppm with Colletotrichum capsici and in the experiment on Parastagonospora nodorum was ≥ 70% in each case.

On to `Cn1ccc2cc(C(=O)NC(C)(C)C(O)Cc3ccccc3)cnc21` (centres unmarked) [Compound 116, N-(3-hydroxy-2-methyl-4-phenylbutan-2-yl)-1-methyl-1H-pyrrolo[2,3-b]pyridine-5-carboxamide], for which the inhibition of growth at 300 ppm with Colletotrichum capsici was ≥ 70%.

Consider `CCC(O)(CC)C(NC(=O)c1cnc2c(ccn2C)c1)c1ccccc1` (centres unmarked) [Compound 120, N-(2-ethyl-2-hydroxy-1-phenylbutyl)-1-methyl-1H-pyrrolo[2,3-b]pyridine-5-carboxamide], for which the pest or weed control at 500 ppm in the experiment with Botrytis cinerea was ≥ 70%.

For `Cc1ccc(F)cc1C(O)C(C)(C)NC(=O)c1cnc2ccsc2c1` (centres unmarked) [Compound 133, N-(1-(5-fluoro-2-methylphenyl)-1-hydroxy-2-methylpropan-2-yl)thieno[3,2-b] pyridine-6-carboxamide], the pest or weed control at 500 ppm in the experiment on Phakopsora pachyrhizi was ≥ 70%. Besides, the inhibition of growth at 300 ppm with Pyricularia oryzae is ≥ 70%.

For the molecule `C[C@H](NC(=O)c1cnc2c(ccn2C)c1)C(O)(c1cc(Cl)cc(Cl)c1)c1cc(Cl)cc(Cl)c1` [Compound 141], the pest or weed control at 500 ppm in the experiment with Phakopsora pachyrhizi was ≥ 70%. In addition, the inhibition of growth at 300 ppm with Pyricularia oryzae is ≥ 70%.

As for `C=C(C)CC(C)(Cc1ccc(F)cc1)NC(=O)c1cnc2c(ccn2C)c1` (centres unmarked) [Compound 181, N-(1-(4-fluorophenyl)-2,4-dimethylpent-4-en-2-yl)-1-methyl-1H-pyrrolo[2,3-b]pyridine-5-carboxamide], the inhibition of growth at 300 ppm with Colletotrichum capsici and with Parastagonospora nodorum was ≥ 70% each time.

Regarding `CC(C)CC(C)(Cc1ccccc1)NC(=O)c1cc2c(nc1Cl)CCC2` (centres unmarked) [Compound 211, 2-chloro-N-(2,4-dimethyl-1-phenylpentan-2-yl)-6,7-dihydro-5H-cyclopenta[b]pyridine-3-carboxamide], the inhibition of growth at 300 ppm in the experiment on Colletotrichum capsici and in the experiment on Parastagonospora nodorum was ≥ 70% in each case.
